Measurements taken from patent publication US20100267825A1, “TREATMENT OF SKIN DAMAGE” (Eukarion, Inc., priority 2009, published 2010).

How the values were obtained:
[1] = In vitro catalase activity (colorimetric peroxidase/ABTS-coupled assay); format: biochemical; conditions: relative to C7 (EUK-8) set at 100%, 10 μM compound, 100 μM hydrogen peroxide
Procedure: The catalase activity of SOD/Catalase mimetics used in the process was determined as previously described by Doctrow et al., 2002, J. Med. Chem. 45, 4549-4558. Briefly, catalase activity was measured by incubating the sample compound with hydrogen peroxide and determining the amount of hydrogen peroxide remaining after a period of time using a colorimetric peroxidase-coupled assay method. 10 μM sample compound and 100 μM hydrogen peroxide in 40 mM sodium phosphate pH 7.4 were incubated together at ambient temperature in a multi-well plate. After the desired reaction period had elapsed, 20 μl of peroxidase/ABTS reagent was added (peroxidase/ABTS reagent contained […] of 50 mM Na phosphate, pH 7.4, 1 mg horseradish peroxidase (1310 U/mg) and 1.6 g ABTS). After five minutes, absorbance at 750 nm was determined.
The amount of hydrogen peroxide remaining was calculated based on a standard curve. To compare rates of catalase reaction, the amount of hydrogen peroxide consumed at 20 minutes was determined.
(rate obtained for SOD/Catalase mimetic)/(rate obtained for C7 (EUK-8))×100%

[2] = system: radiation-induced apoptosis; assay: Protection against radiation-induced apoptosis / anti-apoptotic activity; format: cell-based
Cytotoxicity = format: cell-based
[3] = salen-metal complexes, pH 7.4, hydrogen peroxide consumed at 20 minutes
[4] = orally bioavailable metalloporphyrin derivatives, pH 7.4, 20 minutes

| SMILES | Relative Catalase Rate [1, 3] | further results |
| --- | --- | --- |
| CC(=O)[O-].[Mn+3].[O-]c1ccccc1C=NCCN=Cc1ccccc1[O-] [C31] | 92% | – |
| C1=Cc2nc1cc1ccc([n-]1)c(C1CC1)c1nc(cc3ccc([n-]3)c2C2CC2)C=C1.CC(=O)[O-].[Mn+3] [EUK-418, {[{(Porphine-5,15-diyl)bis[cyclopropyl-diyl]}] (2-)-N^21, N^22, N^23, N^24} manganese(III) acetate] | – | protective effect against radiation-induced apoptosis (in words) [2]: protective effect against radiation-induced apoptosis; Relative Catalase Rate [1, 4]: 70% |
| C1=Cc2nc1cc1ccc([n-]1)c(C1CCOCC1)c1nc(cc3ccc([n-]3)c2C2CCOCC2)C=C1.[Cl-].[Mn+3] [EUK-451, {[{(Porphine-5,15-diyl)bis[4-Tetrahydropyrano-diyl]}](2-)-N^21, N^22, N^23, N^24} manganese(III) chloride] | – | anti-apoptotic activity (in words) [2]: high; protective effect against radiation-induced apoptosis (in words) [2]: protective effect against radiation-induced apoptosis; Relative Catalase Rate [1, 4]: 140%; cytotoxicity (in words) (Cytotoxicity): low |
| CC(=O)[O-].[Mn+3].[O-]c1c(F)cccc1C=NCCN=Cc1cccc(F)c1[O-] [C36] | 128% | – |
| CC(=O)[O-].CCc1c2nc(c(CC)c3ccc([n-]3)c(CC)c3nc(c(CC)c4ccc1[n-]4)C=C3)C=C2.[Mn+3] [EUK-425, (5,10,15,20-Tetraethylporphyrinato) manganese (III) acetate] | – | Relative Catalase Rate [1, 4]: 84% |
| CC(=O)[O-].COc1ccc(-c2c3nc(cc4ccc([n-]4)c(-c4ccc(OC)cc4)c4nc(cc5ccc2[n-]5)C=C4)C=C3)cc1.[Mn+3] [EUK-450, {[{(Porphine-5,15-diyl)bis[benzene-1,4 diyl (4-methyl-oxy)]}](2-)-N^21, N^22, N^23, N^24} manganese(III) acetate] | – | protective effect against radiation-induced apoptosis (in words) [2]: protective effect against radiation-induced apoptosis; Relative Catalase Rate [1, 4]: 84% |
| CC(=O)[O-].COc1cc([O-])c(C=NCCN=Cc2c([O-])cc(OC)cc2OC)c(OC)c1.[Mn+3] [C35] | 25% | – |
| C1=Cc2nc1cc1ccc([n-]1)c(C1CCCCC1)c1nc(cc3ccc([n-]3)c2C2CCCCC2)C=C1.[Cl-].[Mn+3] [EUK-452, {[{(Porphine-5,15-diyl)bis[cyclohexyl-diyl]}] (2-)-N^21, N^22, N^23, N^24} manganese(III) chloride] | – | protective effect against radiation-induced apoptosis (in words) [2]: protective effect against radiation-induced apoptosis; Relative Catalase Rate [1, 4]: 105% |
| COc1ccc(C=NCCN=Cc2ccc(OC)cc2[O-])c([O-])c1.[Cl-].[Mn+3] [C34] | 46% | – |
| CC(=O)[O-].COc1cccc(C=NCCN=Cc2cccc(OC)c2[O-])c1[O-].[Mn+3] [C32] | 188% | – |
| [Cl-].[Mn+3].[O-]c1c(F)cccc1C=NCCN=Cc1cccc(F)c1[O-] [C37] | 117% | – |
| CC(=O)[O-].COc1cc(Br)c([O-])c(C=Nc2ccccc2N=Cc2cc(OC)cc(Br)c2[O-])c1.[Mn+3] [C76] | 427% | – |
| COc1cccc(C=Nc2ccccc2N=Cc2cccc(OC)c2[O-])c1[O-].[Cl-].[Mn+3] [C81] | 493% | – |
| C1=Cc2nc1cc1ccc([n-]1)c(Cc1ccccc1)c1nc(cc3ccc([n-]3)c2Cc2ccccc2)C=C1.CC(=O)[O-].[Mn+3] [EUK-423, {[{(Porphine-5,15-diyl)bis[benzyl-diyl]}] (2-)-N^21, N^22, N^23, N^24} manganese(III) acetate] | – | protective effect against radiation-induced apoptosis (in words) [2]: protective effect against radiation-induced apoptosis; Relative Catalase Rate [1, 4]: 56% |
| CC(=O)[O-].[Mn+3].[O-]c1c2cccc1OCCOCCOCCOc1cccc(c1[O-])C=Nc1ccccc1N=C2 [C82] | 345% | – |
| COc1cccc(C=NCCN=Cc2cccc(OC)c2[O-])c1[O-].[Cl-].[Mn+3] [C40 (EUK-134)] | 155% | – |
| CC(=O)[O-].COc1ccc(C=NCCN=Cc2ccc(OC)cc2[O-])c([O-])c1.[Mn+3] [C33] | 38% | – |
| CC(=NCCN=C(C)c1ccccc1[O-])c1ccccc1[O-].CC(=O)[O-].[Mn+3] [C85] | 31% | – |
| CC(=O)[O-].[Mn+3].[O-]c1ccccc1CNCCNCc1ccccc1[O-] [C83] | 42% | – |
| [Cl-].[Mn+3].[O-]c1ccccc1C=NCCN=Cc1ccccc1[O-] [C7 (EUK-8)] | 100% | – |
| [Cl-].[Mn+3].[O-]c1ccccc1CNCCNCc1ccccc1[O-] [C84] | 31% | – |
